Assay results: ChEMBL document CHEMBL3994622, “Design and synthesis of new RAF kinase-inhibiting antiproliferative quinoline derivatives. Part 2: Diarylurea derivatives” (Eur J Med Chem, 2017)

Assays:
[1] = tested on: 786-0; assay: Growth inhibition of human 786-0 cells assessed as cell growth at 0.05 uM incubated for 48 hrs by sulforhodamine B assay relative to control; format: functional; conditions: 786-0, 48 h, read-out: Activity
[2] = tested on: HOP-92; assay: Growth inhibition of human HOP92 cells assessed as cell growth at 0.5 uM incubated for 48 hrs by sulforhodamine B assay relative to control; format: functional; conditions: HOP-92, 48 h, read-out: Activity
[3] = tested on: U-251; assay: Growth inhibition of human U251 cells assessed as cell growth at 5 uM incubated for 48 hrs by sulforhodamine B assay relative to control; format: functional; conditions: U-251, 48 h, read-out: Activity
[4] = tested on: NCI-H460; assay: Growth inhibition of human NCI-H460 cells assessed as cell growth at 0.005 uM incubated for 48 hrs by sulforhodamine B assay relative to control; format: functional; conditions: NCI-H460, 48 h, read-out: Activity
[5] = tested on: MOLT-4; assay: Growth inhibition of human MOLT4 cells assessed as cell growth at 50 uM incubated for 48 hrs by sulforhodamine B assay relative to control; format: functional; conditions: MOLT-4, 48 h, read-out: Activity
[6] = tested on: CAKI-1; assay: Growth inhibition of human Caki1 cells assessed as cell growth at 50 uM incubated for 48 hrs by sulforhodamine B assay relative to control; format: functional; conditions: CAKI-1, 48 h, read-out: Activity
[7] = tested on: RXF 393; assay: Growth inhibition of human RXF393 cells assessed as cell growth at 50 uM incubated for 48 hrs by sulforhodamine B assay relative to control; format: functional; conditions: RXF 393, 48 h, read-out: Activity
[8] = tested on: ACHN; assay: Growth inhibition of human ACHN cells assessed as cell growth at 50 uM incubated for 48 hrs by sulforhodamine B assay relative to control; format: functional; conditions: read-out: Activity
[9] = tested on: IGROV-1; assay: Growth inhibition of human IGROV1 cells assessed as cell growth at 0.005 uM incubated for 48 hrs by sulforhodamine B assay relative to control; format: functional; conditions: IGROV-1, 48 h, read-out: Activity
[10] = tested on: NCI-H522; assay: Growth inhibition of human NCI-H522 cells assessed as cell growth at 50 uM incubated for 48 hrs by sulforhodamine B assay relative to control; format: functional; conditions: NCI-H522, 48 h, read-out: Activity
[11] = tested on: SNB-75; assay: Growth inhibition of human SNB75 cells assessed as cell growth at 50 uM incubated for 48 hrs by sulforhodamine B assay relative to control; format: functional; conditions: SNB-75, 48 h, read-out: Activity
[12] = tested on: HCT-15; assay: Growth inhibition of human HCT15 cells assessed as cell growth at 0.005 uM incubated for 48 hrs by sulforhodamine B assay relative to control; format: functional; conditions: HCT-15, 48 h, read-out: Activity
[13] = tested on: M14; assay: Growth inhibition of human M14 cells assessed as cell growth at 0.05 uM incubated for 48 hrs by sulforhodamine B assay relative to control; format: functional; conditions: M14, 48 h, read-out: Activity
[14] = tested on: SK-OV-3; assay: Growth inhibition of human SKOV3 cells assessed as cell growth at 0.05 uM incubated for 48 hrs by sulforhodamine B assay relative to control; format: functional; conditions: SK-OV-3, 48 h, read-out: Activity
[15] = tested on: COLO 205; assay: Growth inhibition of human COLO205 cells assessed as cell growth at 0.005 uM incubated for 48 hrs by sulforhodamine B assay relative to control; format: functional; conditions: COLO 205, 48 h, read-out: Activity
[16] = tested on: TK-10; assay: Growth inhibition of human TK10 cells assessed as cell growth at 5 uM incubated for 48 hrs by sulforhodamine B assay relative to control; format: functional; conditions: TK-10, 48 h, read-out: Activity
[17] = tested on: PC-3; assay: Growth inhibition of human PC3 cells assessed as cell growth at 0.005 uM incubated for 48 hrs by sulforhodamine B assay relative to control; format: functional; conditions: PC-3, 48 h, read-out: Activity
[18] = tested on: NCI-H322M; assay: Growth inhibition of human NCI-H322M cells assessed as cell growth at 0.5 uM incubated for 48 hrs by sulforhodamine B assay relative to control; format: functional; conditions: read-out: Activity
[19] = tested on: MCF7; assay: Growth inhibition of human MCF7 cells assessed as cell growth at 5 uM incubated for 48 hrs by sulforhodamine B assay relative to control; format: functional; conditions: MCF7, 48 h, read-out: Activity
[20] = tested on: HCT-116; assay: Growth inhibition of human HCT116 cells assessed as cell growth at 0.5 uM incubated for 48 hrs by sulforhodamine B assay relative to control; format: functional; conditions: HCT-116, 48 h, read-out: Activity
[21] = tested on: EKVX; assay: Growth inhibition of human EKVX cells assessed as cell growth at 50 uM incubated for 48 hrs by sulforhodamine B assay relative to control; format: functional; conditions: read-out: Activity
[22] = tested on: SR; assay: Growth inhibition of human SR cells assessed as cell growth at 5 uM incubated for 48 hrs by sulforhodamine B assay relative to control; format: functional; conditions: read-out: Activity
[23] = tested on: A549; assay: Growth inhibition of human A549/ATCC cells assessed as cell growth at 0.005 uM incubated for 48 hrs by sulforhodamine B assay relative to control; format: functional; conditions: A549, 48 h, read-out: Activity
[24] = tested on: TK-10; assay: Growth inhibition of human TK10 cells assessed as cell growth at 0.3 uM incubated for 48 hrs by sulforhodamine B assay relative to control; format: functional; conditions: TK-10, 48 h, read-out: Activity
[25] = tested on: SR; assay: Growth inhibition of human SR cells assessed as cell growth at 0.003 uM incubated for 48 hrs by sulforhodamine B assay relative to control; format: functional; conditions: read-out: Activity
[26] = tested on: LOX IMVI; assay: Growth inhibition of human LOXIMVI cells assessed as cell growth at 3 uM incubated for 48 hrs by sulforhodamine B assay relative to control; format: functional; conditions: read-out: Activity
[27] = tested on: UO-31; assay: Growth inhibition of human UO31 cells assessed as cell growth at 0.003 uM incubated for 48 hrs by sulforhodamine B assay relative to control; format: functional; conditions: UO-31, 48 h, read-out: Activity
[28] = tested on: BT-549; assay: Growth inhibition of human BT549 cells assessed as cell growth at 0.003 uM incubated for 48 hrs by sulforhodamine B assay relative to control; format: functional; conditions: BT-549, 48 h, read-out: Activity
[29] = target: Serine/threonine-protein kinase B-raf (Homo sapiens, UniProt P15056, V600E); assay: Inhibition of human BRAF V600E mutant using MEK1 as substrate in presence of [33P]ATP by Hotspot assay
[30] = tested on: SK-MEL-28; assay: Growth inhibition of human SK-MEL-28 cells assessed as cell growth at 0.03 uM incubated for 48 hrs by sulforhodamine B assay relative to control; format: functional; conditions: SK-MEL-28, 48 h, read-out: Activity
[31] = tested on: SNB-19; assay: Growth inhibition of human SNB19 cells assessed as cell growth at 100 uM incubated for 48 hrs by sulforhodamine B assay relative to control; format: functional; conditions: SNB-19, 48 h, read-out: Activity
[32] = tested on: SW-620; assay: Growth inhibition of human SW620 cells assessed as cell growth at 1 uM incubated for 48 hrs by sulforhodamine B assay relative to control; format: functional; conditions: SW-620, 48 h, read-out: Activity
[33] = tested on: CAKI-1; assay: Growth inhibition of human Caki1 cells assessed as cell growth at 100 uM incubated for 48 hrs by sulforhodamine B assay relative to control; format: functional; conditions: CAKI-1, 48 h, read-out: Activity
[34] = tested on: MDA-MB-468; assay: Growth inhibition of human MDA-MB-468 cells assessed as cell growth at 0.03 uM incubated for 48 hrs by sulforhodamine B assay relative to control; format: functional; conditions: MDA-MB-468, 48 h, read-out: Activity

Serine/threonine-protein kinase B-raf, sequence (P15056 2-766 V600E limits assumed): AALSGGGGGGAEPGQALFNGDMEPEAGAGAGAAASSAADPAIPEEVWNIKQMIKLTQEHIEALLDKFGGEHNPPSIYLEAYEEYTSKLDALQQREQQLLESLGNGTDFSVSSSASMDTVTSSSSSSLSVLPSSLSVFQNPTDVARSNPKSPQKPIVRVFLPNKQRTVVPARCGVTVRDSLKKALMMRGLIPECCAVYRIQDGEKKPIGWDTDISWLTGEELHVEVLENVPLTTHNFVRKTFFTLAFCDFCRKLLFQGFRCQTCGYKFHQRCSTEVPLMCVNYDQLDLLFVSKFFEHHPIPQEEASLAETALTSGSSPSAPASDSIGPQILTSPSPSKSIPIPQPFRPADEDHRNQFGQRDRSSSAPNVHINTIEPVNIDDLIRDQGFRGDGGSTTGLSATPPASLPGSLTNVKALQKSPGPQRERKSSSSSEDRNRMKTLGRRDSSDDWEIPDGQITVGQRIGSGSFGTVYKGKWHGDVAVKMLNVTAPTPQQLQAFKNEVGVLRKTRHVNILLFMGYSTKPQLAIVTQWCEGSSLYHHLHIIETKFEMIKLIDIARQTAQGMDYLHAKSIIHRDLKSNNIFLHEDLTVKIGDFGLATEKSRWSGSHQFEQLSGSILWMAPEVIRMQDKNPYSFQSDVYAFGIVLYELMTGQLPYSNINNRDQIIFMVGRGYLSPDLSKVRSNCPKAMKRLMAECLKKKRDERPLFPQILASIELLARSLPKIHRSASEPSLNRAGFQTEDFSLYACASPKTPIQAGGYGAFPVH

## COc1cc2cc(Oc3ccc(NC(=O)Nc4cccc(C(F)(F)F)c4)cc3)c(C)nc2cc1OC
[1]
  growth at 0.05 µM: 82%
[2]
  growth at 0.5 µM: 90%
[3]
  growth at 5 µM: 5%
[4]
  growth at 0.005 µM: 96%
[5]
  growth at 50 µM: -22%
[6]
  growth at 50 µM: -51%
[7]
  growth at 50 µM: -69%
[8]
  growth at 50 µM: -34%
[9]
  growth at 0.005 µM: 101%
[10]
  growth at 50 µM: -61%
[11]
  growth at 50 µM: -46%
[12]
  growth at 0.005 µM: 96%
[13]
  growth at 0.05 µM: 84%
[14]
  growth at 0.05 µM: 95%
[15]
  growth at 0.005 µM: 97%
[16]
  growth at 5 µM: 19%
[17]
  growth at 0.005 µM: 94%
[18]
  growth at 0.5 µM: 107%
[19]
  growth at 5 µM: 3%
[20]
  growth at 0.5 µM: 88%
[21]
  growth at 50 µM: -48%
[22]
  growth at 5 µM: -19%
[23]
  growth at 0.005 µM: 98%

## COc1cc2cc(Oc3ccc(NC(=O)Nc4ccc(Cl)c(C(F)(F)F)c4)cc3)c(C)nc2cc1OC
[24]
  growth at 0.3 µM: 100%
[25]
  growth at 0.003 µM: 99%
[26]
  growth at 3 µM: 12%
[27]
  growth at 0.003 µM: 87%
[28]
  growth at 0.003 µM: 98%
[29]
  IC50: 260 nM
[30]
  growth at 0.03 µM: 98%

## COc1cc2cc(Oc3ccc(NC(=O)Nc4cc(C(F)(F)F)cc(C(F)(F)F)c4)cc3)c(C)nc2cc1OC
[31]
  growth at 100 µM: -79%
[32]
  growth at 1 µM: 81%
[33]
  growth at 100 µM: -60%

## COc1cc2cc(Oc3ccc(NC(=O)Nc4ccc(Cl)c(Cl)c4)cc3)c(C)nc2cc1OC
[31]
  growth at 100 µM: -41%
[32]
  growth at 1 µM: 107%
[33]
  growth at 100 µM: -64%

## Cc1nc2cc(O)c(O)cc2cc1Oc1ccc(NC(=O)Nc2ccc(Cl)c(Cl)c2)cc1
[24]
  growth at 0.3 µM: 98%
[25]
  growth at 0.003 µM: 100%
[34]
  growth at 0.03 µM: 105%
[27]
  growth at 0.003 µM: 91%
[28]
  growth at 0.003 µM: 91%
[30]
  growth at 0.03 µM: 87%
